Patent US12152087B2, “Deuterated melflufen compounds” (Oncopeptides AB, priority 2018, dated 2024)
Structures can show the parent of a compound that is named as a salt. Where two headings read alike, the source gives them in different places.

Assays:
[1] = Comparative single dose toxicokinetic study in dogs, 30 minutes intravenous infusion; assay type: in vivo, beagle dogs; conditions: for AUC(0-t) / Tmax / Cmax / half-life: beagle, dog; for AUC(0-t) / Tmax / Cmax / Tlast / half-life: plasma; for AUC(0-t) / Tmax / Cmax: iv; for AUC(0-t) / Tmax / Cmax / Tlast: mean, labelled analyte; for Cmax: read-out: Cmax; for increase of systemic exposure with increasing doses, assuming dose proportionality: increasing doses of melflufen-d5 (III) infusion (1.25 and 2.5 mg/kg); for half-life: intravenous, estimable in one animal only, read-out: half-life
Description: A comparative single dose toxicity study in dogs was carried out, comparing melflufen-d5 (III) and melflufen to investigate the toxicokinetics of melflufen and melflufen-d5 (III) and their metabolites, desethyl-melflufen and melphalan, after a single intravenous administration of melflufen-d5 (III) or melflufen as 30 minutes infusion in the dog.
This study aimed to compare the potential acute toxicity of melflufen-d5 (III) and melflufen. The toxicokinetics of melflufen-d5 (III), melflufen and their metabolites desethyl-melflufen and melphalan were evaluated after a single intravenous administration as 30 minutes infusion in dogs.
Melflufen-d5 (III) or melflufen were given as 30 minutes infusion to male and female dogs according to the following scheme:
Blood samples were collected from peripheral vein on Day 1 at pre-dose, 15 min, 30 min (just prior to end of infusion), 40 min, 1 h, 2 h, 4 h and 6 h after the start of infusion).
Blood samples were collected into heparinized collection tubes, put in an ice-water bath and immediately centrifuged (3 minutes, 10000 g, +4° C.). The obtained plasma was divided into two aliquots, placed into pre-chilled cryovials and in a freezer at −70° C. until analysis.
Toxicokinetic Calculations Plasma toxicokinetic analyses for melflufen-d5 (III), melflufen and their metabolites, desethyl-melflufen and melphalan were performed according to standard non-compartmental approach using Phoenix WinNonlin system (v. 6.3, Certara Company, USA).
After administration, Cmax, maximum concentration, and Tmax, time at which the maximum concentration was achieved, were read as the coordinates of the highest plasma concentration of the time course. Clast, last detectable concentration, and Tlast, time of the last detectable concentration, were reported as parameters.
The area under plasma concentration vs. time curve up to the last detectable concentration, AUClast, was calculated by the linear trapezoidal rule.
t1/2,z, the half-life of the terminal phase, was calculated by linear regression analysis of the natural-log concentration vs. time curve according to the formula: […]
AUC∞ the area under plasma concentration vs. time curve up to infinite time, was calculated by adding the portion of the area calculated as Clast/λz to AUClast assuming mono-exponential decay.

[2] = tested on: primary cultures of human tumour cells; conditions: panels of primary cultures of human tumour cells; cited from earlier work
[3] = both sexes, 1.25 mg/kg, group 2: melflufen-d5 (III) 1.25 mg/kg 30 min infusion, M + F combined
[4] = both sexes, 2.5 mg/kg, group 3: melflufen-d5 (III) 2.5 mg/kg 30 min infusion, M + F combined
[5] = female, 1.25 mg/kg, group 2: melflufen-d5 (III) 1.25 mg/kg 30 min infusion, females
[6] = female, 2.5 mg/kg, group 3: melflufen-d5 (III) 2.5 mg/kg 30 min infusion, females
[7] = male, 1.25 mg/kg, group 2: melflufen-d5 (III) 1.25 mg/kg 30 min infusion, males
[8] = male, 2.5 mg/kg, group 3: melflufen-d5 (III) 2.5 mg/kg 30 min infusion, males
[9] = group 2: melflufen-d5 (III) 1.25 mg/kg 30 min infusion, M + F combined
[10] = group 2: melflufen-d5 (III) 1.25 mg/kg 30 min infusion, females
[11] = group 2: melflufen-d5 (III) 1.25 mg/kg 30 min infusion, males
[12] = group 3: melflufen-d5 (III) 2.5 mg/kg 30 min infusion, M + F combined
[13] = group 3: melflufen-d5 (III) 2.5 mg/kg 30 min infusion, females
[14] = group 3: melflufen-d5 (III) 2.5 mg/kg 30 min infusion, males
[15] = both sexes, 2.5 mg/kg, group 4: melflufen 2.5 mg/kg 30 min infusion, M + F combined
[16] = female, 2.5 mg/kg, group 4: melflufen 2.5 mg/kg 30 min infusion, females
[17] = male, 2.5 mg/kg, group 4: melflufen 2.5 mg/kg 30 min infusion, males
[18] = group 4: melflufen 2.5 mg/kg 30 min infusion, M + F combined
[19] = group 4: melflufen 2.5 mg/kg 30 min infusion, females
[20] = group 4: melflufen 2.5 mg/kg 30 min infusion, males
[21] = 2-fold melflufen-d5 (III) dose increase (1.25 to 2.5 mg/kg), combined genders

[2H]C([2H])([2H])C([2H])([2H])OC(=O)C(Cc1ccc(F)cc1)NC(=O)C(N)Cc1ccc(N(CCCl)CCCl)cc1 [melflufen-d5 (III), (^2H5)ethyl (2S)-2-[(2S)-2-amino-3-{4-[bis(2-chloroethyl)amino]phenyl}propanamido]-3-(4-fluorophenyl)propanoate hydrochloride]
increase of exposure with the dose in terms of peak and area under the curve ([1]; 2.5 vs 1.25 mg/kg melflufen-d5 (III) (2-fold dose increase), combined gender parameters): 2.7 fold
AUC(0-t) [1, 3]: 0.0336 µM·h
Tmax [1, 3]: 22.5 min
Cmax [1, 3]: 98.5 nM
AUC(0-t) [1, 4]: 0.0902 µM·h
Tmax [1, 4]: 22.5 min
Cmax [1, 4]: 253 nM
exposure after infusion of melflufen-d5 (III) compared to melflufen ([1]; equivalent doses): consistently higher
AUC(0-t) [1, 5]: 0.0296 µM·h
Tmax [1, 5]: 30 min
Cmax [1, 5]: 99.3 nM
AUC(0-t) [1, 6]: 0.0564 µM·h
Tmax [1, 6]: 20 min
Cmax [1, 6]: 159 nM
increase of systemic exposure with increasing doses, assuming dose proportionality [1]: slightly more than expected
AUC(0-t) [1, 7]: 0.0377 µM·h
Tmax [1, 7]: 15 min
Cmax [1, 7]: 97.7 nM
AUC(0-t) [1, 8]: 0.124 µM·h
Tmax [1, 8]: 25 min
Cmax [1, 8]: 346 nM
Tlast [1, 9]: 0.528 h
Tlast [1, 10]: 0.50 h
Tlast [1, 11]: 0.556 h
Tlast [1, 12]: 0.611 h
Tlast [1, 13]: 0.611 h
Tlast [1, 14]: 0.611 h
disappeared from plasma, time from start of dosing ([1]; melflufen-d5 (III) infused for 30 minutes at 1.25 and 2.5 mg/kg (groups 2 and 3)): ≤ 40 min

CCOC(=O)[C@H](Cc1ccc(F)cc1)NC(=O)[C@@H](N)Cc1ccc(N(CCCl)CCCl)cc1 [melflufen, L-Melphalanyl-4-fluoro-L-phenylalanine ethyl ester]
AUC(0-t) [1, 15]: 0.0433 µM·h
Tmax [1, 15]: 20 min
Cmax [1, 15]: 144 nM
average exposure to melflufen, fold lower than that to melflufen-d5 (III) ([1]; each at 2.5 mg/kg (group 4 vs group 3)): 2 fold
AUC(0-t) [1, 16]: 0.0539 µM·h
Tmax [1, 16]: 25 min
Cmax [1, 16]: 163 nM
AUC(0-t) [1, 17]: 0.0326 µM·h
Tmax [1, 17]: 15 min
Cmax [1, 17]: 124 nM
Tlast [1, 18]: 0.500 h
Tlast [1, 19]: 0.500 h
Tlast [1, 20]: 0.500 h
time of peak in plasma ([1]; melflufen infused for 30 minutes at 2.5 mg/kg (group 4)): 15 to 30 min
efficacy, fold higher than melphalan [2]: 50 to 100 fold

N[C@@H](Cc1ccc(N(CCCl)CCCl)cc1)C(=O)N[C@@H](Cc1ccc(F)cc1)C(=O)O [desethyl-melflufen, (2S)-2-[[(2S)-2-amino-3-[4-[bis(2-chloroethyl)amino]phenyl]propanoyl]amino]-3-(4-fluorophenyl)propanoic acid]
increase of AUClast of the metabolite with dose [1, 21]: 3.5 fold
increase of Cmax of the metabolite with dose [1, 21]: 3.1 fold
exposure relative to the parent compound exposure ([1]; after melflufen-d5 (III) infusion): about one-half
half-life ([1]; 2.5 mg/kg, after melflufen 2.5 mg/kg (group 4)): 7 min
half-life ([1]; 2.5 mg/kg, after melflufen-d5 (III) 2.5 mg/kg): 5 min
AUC(0-t) [1, 3]: 0.0144 µM·h
Tmax [1, 3]: 30 min
Cmax [1, 3]: 33.2 nM
AUC(0-t) [1, 4]: 0.0506 µM·h
Tmax [1, 4]: 27.5 min
Cmax [1, 4]: 102 nM
AUC(0-t) [1, 15]: 0.0325 µM·h
Tmax [1, 15]: 27.5 min
Cmax [1, 15]: 71.4 nM
average exposure to the metabolite after infusion of melflufen compared with after infusion of melflufen-d5 (III) ([1]; each at 2.5 mg/kg): lower
AUC(0-t) [1, 5]: 0.0132 µM·h
Tmax [1, 5]: 30 min
Cmax [1, 5]: 30.8 nM
AUC(0-t) [1, 6]: 0.0358 µM·h
Tmax [1, 6]: 30 min
Cmax [1, 6]: 70.3 nM
AUC(0-t) [1, 16]: 0.0287 µM·h
Tmax [1, 16]: 25 min
Cmax [1, 16]: 60.5 nM
increase of systemic exposure with increasing doses, assuming dose proportionality [1]: slightly more than expected
no longer detectable after, post-dosing ([1]; labelled metabolite after 1.25-2.5 mg/kg melflufen-d5 (III) infusion): 40 to 60 min
time of maximal plasma concentration ([1]; labelled metabolite after 1.25 and 2.5 mg/kg melflufen-d5 (III) infusion (groups 2 and 3)): 15 to 30 min
AUC(0-t) [1, 7]: 0.0155 µM·h
Tmax [1, 7]: 30 min
Cmax [1, 7]: 35.6 nM
AUC(0-t) [1, 8]: 0.0655 µM·h
Tmax [1, 8]: 25 min
Cmax [1, 8]: 134 nM
AUC(0-t) [1, 17]: 0.0363 µM·h
Tmax [1, 17]: 30 min
Cmax [1, 17]: 82.2 nM
Tlast [1, 9]: 0.667 h
Tlast [1, 10]: 0.667 h
Tlast [1, 11]: 0.667 h
Tlast [1, 12]: 1.00 h
Tlast [1, 13]: 1.00 h
Tlast [1, 14]: 1.00 h
Tlast [1, 18]: 0.945 h
Tlast [1, 19]: 0.889 h
Tlast [1, 20]: 1.00 h
